Source: paper PMC12695667 (Nature, 2025)
Values joined by “and” are separate entries in the source; they are usually repeats but may differ in a detail not shown here. Identical values can stand only once.

Experiments:
[1] = test system: C57BL/6J mouse dorsal skin; type: in vivo, C57BL/6J mice
Excerpt: The dorsal skin of male C57BL/6J mice was exposed using depilatory cream and cleaned using PBS. A diffusing cell of 1.13 cm^2 was attached onto the dorsal skin. […] After timed topical administration, the mice were euthanized. The treated skin sites were washed and dissected. The entire skin samples were carefully washed three times with PBS, fixed with 4% paraformaldehyde (PFA) solution and sectioned into 10-μm-thick slices using a cryostat (UV800, Leica Microsystems). 4′,6-Diamidino-2′-phenylindole (DAPI) was used to stain and label the nuclei of skin tissues, and BODIPY was used to stain and localize subcutaneous fat deposits. […] The CLSM images were analysed using ImageJ.

[2] = biological target: insulin receptor extracellular domains, His-tagged; experiment: SPR; Biacore X100, CM5 chip; anti-His antibody immobilised, His-tag-ECD-IR captured on it; insulin (9.75-156 nM) or OP-I (4.06-65.0 nM) injected in HEPES running buffer pH 7.4, single-cycle kinetics, 180 s binding and 300 s dissociation, flow 30 ul/min
[3] = test system: STZ-induced type 1 diabetic mice; experiment: Blood glucose levels in STZ-induced diabetic mice; type: in vivo, C57BL/6J mice; conditions: for Effect on BGLs, topical: topical 116 U kg^−1, 1.13 cm^2 dorsal skin
Description: Type 1 diabetic mice were established through intraperitoneal delivery of STZ (150 mg per kg in 10 mg ml^−1 disodium citrate buffer, pH 4.5) into healthy male C57BL/6J mice (aged 6–8 weeks, ~25 g). BGLs were monitored, and the mice with BGLs exceeding 300 mg dl^−1 were considered diabetic. Diabetic mice with fasting BGLs within the 300 to 600 mg dl^−1 range were selected for the experiments. BGLs were measured from tail-vein blood (around 3 μl) using a calibrated Sinocare glucose meter.
BGLs were measured at timed intervals. […] The diabetic mice were subjected to a fasting period of 12 h during the experimental procedures.

[4] = test system: STZ-induced diabetic mice; experiment: Intraperitoneal glucose tolerance test (IPGTT) in diabetic mice; type: in vivo, C57BL/6J mice; design: Area under the IPGTT blood glucose curve: unit not given here; conditions: for Area under the IPGTT blood glucose curve: Fig. 3h, 0-120 min; for BGL after intraperitoneal glucose administration (IPGTT): diabetic mice, topical 116 U kg^−1, glucose 1.5 g per kg i.p., hyperglycaemic state maintained
Description: BGLs were monitored over time. The diabetic mice were subjected to a fasting period of 3 h during the experimental procedures.

[5] = test system: STZ-induced diabetic minipigs; experiment: Blood glucose levels in STZ-induced diabetic minipigs (CGMS); type: in vivo, Guangxi Bama minipigs; conditions: cream, 29 U kg^−1
Description: Guangxi Bama minipigs (aged 6 months; weight, 35–40 kg) were infused with STZ in freshly prepared disodium citrate buffer (75 mg ml^−1, pH 4.5) at a 150 mg per kg dose within 10 min and then maintained for recovery. The glucose levels were monitored using CGMS[15] (Dexcom G4 Platinum Continuous Glucose Monitor System, Dexcom). A BGL that is constantly higher than 250 mg dl^−1 indicates the successful establishment of the insulin-deficient diabetic minipig model.
The cream was topically applied onto the minipig abdominal skin at an insulin-equivalent dose of 40 mg or 10 mg (n = 3 for each group). The area with the cream was wrapped with plastic film. The BGLs of minipigs were continuously monitored using the CGMS. The diabetic minipigs were subjected to a fasting period of 12 h during the experimental procedures.

[6] = test system: HaCat spheroids; experiment: Penetration in 3D-cultured multilayer HaCat spheroids (with or without endocytosis/exocytosis inhibitors); type: cell-based, human; conditions: FITC-eq 1 μg ml^−1, 12 h
Description: Multilayer cell spheroids were prepared using the hanging-drop method. […] The cell suspensions (25 μl) were dropped onto the lids of the cell culture plate to form uniform droplets, and 20 ml PBS was added to the plate to keep the droplets moist. The cells were incubated for 72 h and formed dense spheroids, which were transferred to an agarose-coated (1% (w/v) in PBS) 96-well plate with one spheroid per well and incubated for another 72 h to mature. […] The spheroids were washed with PBS and imaged using CLSM by z-stack tomoscan at 20 μm intervals from the bottom to the middle of the spheroids. The integration of FITC fluorescence density and linescan analysis were performed using Image J.
The HaCat spheroids were imaged and analysed as described above.
Spheroids were pre-treated with the indicated inhibitors for 4 h, followed by incubation with
The images are representative of n = 3 independent
experiments. b, Line-scan analysis of FITC fluorescence along a randomly selected line (yellow
(1 picture or pasted object on this page, not shown here)

[7] = test system: phosphorylated IRβ/IGF1Rβ; experiment: Western blotting for insulin signalling, pIR/IR in skeletal muscle; type: in vivo, mouse; conditions: STZ-diabetic mice, 1 h after s.c. 5 U/kg, western blot, individual mice, n = 3
Description: (§1) The mice were euthanized, and their skeletal muscle tissues were collected at 1 h after subcutaneous injection or 4 h after topical administration. Muscle samples were weighed and lysed in radioimmunoprecipitation buffer (Sigma-Aldrich) containing protease and phosphatase inhibitors (Thermo Fisher Scientific) and incubated on ice for 30 min. The lysates were centrifuged at 20,000g for 20 min at 4 °C and quantified using the BCA protein assay. […] The membranes were blocked in Tris-buffered saline with 0.5% Tween-20 (TBST) and 5% BSA for 1 h, followed by overnight incubation at 4 °C with primary antibodies against phosphorylated IRβ/IGF1Rβ (1:1,000), phosphorylated AKT-Thr308 (1:1,000) or GAPDH (1:5,000). After washing three times with TBST, the membranes were incubated with horseradish-peroxidase-conjugated secondary antibodies (HRP-labelled goat anti-rabbit IgG (H+L) or HRP-labelled Goat Anti-Mouse IgG (H+L)) at a dilution of 1:1,000 at room temperature for 1 h. Signal detection was performed using Immobilon Forte chemiluminescence substrate on the ChemiScope 3600 Mini Imaging System (Clinx Science Instruments). […]
(§2) control. The blots are representative of n = 3 independent experiments . b, Quantification of pIR and pAKT levels. […]

[8] = test system: phosphorylated AKT-Thr308; experiment: Western blotting for insulin signalling, pAKT/AKT in skeletal muscle; type: in vivo, mouse; conditions: STZ-diabetic mice, 1 h after s.c. 5 U/kg, individual mice, n = 3
Description: as §1, §2

Compound | Effect on BGLs, topical [3] | Area under the IPGTT blood glucose curve ([4]; replicate 1) | Area under the IPGTT blood glucose curve ([4]; replicate 2) | Area under the IPGTT blood glucose curve ([4]; replicate 3) | Area under the IPGTT blood glucose curve ([4]; replicate 4) | Area under the IPGTT blood glucose curve ([4]; replicate 5) | BGL after intraperitoneal glucose administration (IPGTT) [4] | Effect of topical treatment on minipig BGLs [5] | Fluorescence of HaCat spheroids (CLSM) [6] | further results
CCN1/C(=C/C=C/C=C/C2=[N+](CCCCCC(=O)O)c3ccc(S(=O)(=O)O)cc3C2(C)C)C(C)(C)c2cc(S(=O)(=O)[O-])ccc21 [free Cy5] |  |  |  |  |  |  |  |  |  | Transdermal permeability of free label [1]: no detectable transdermal permeability
OP-conjugated insulin (insulin conjugated to poly[2-(N-oxide-N,N-dimethylamino)ethyl methacrylate]) |  |  |  |  |  |  |  |  |  | koff [2]: 0.0053 s⁻¹; kon [2]: 204000 M⁻¹ s⁻¹
PEG–I: PEGylated insulin, PEG molecular mass of 5 kDa, used as a control | negligible effect on BGLs | 63110 | 52617 | 56133 | 51381 | 44798 | around 600 mg dl^−1 | almost no obvious changes in minipig BGLs |  | 
PEG–I^FITC: FITC-labelled PEG–I |  |  |  |  |  |  |  |  | only weak fluorescence | 
insulin: Human recombinant insulin (29 U mg^−1, I8830, Solarbio) [reference compound] | negligible effect on BGLs | 55359 | 62309 | 59228 | 59472 | 58535 | around 600 mg dl^−1 | almost no obvious changes in minipig BGLs |  | PIR/IR [7]: 0.1659 and 0.2361 and 0.221; pAKT/AKT [8]: 0.4051 and 0.6287 and 0.4302; BGL after rebound within 4 h ([3]; s.c. 5 U kg^−1): around 400 mg dl^−1; BGL reached within 1 h ([3]; s.c. 5 U kg^−1, from around 400): ~100 mg/dL
insulin^FITC: FITC-labelled insulin |  |  |  |  |  |  |  |  | only weak fluorescence | 
